How the values were obtained:
in vivo [1] = details: ip
Text: LD50 data were obtained by standard procedures known to the art.

[2] = system: ventricular rate and rhythm; test: animal or person; assay type: in vivo; details: for ED50: Mus musculus, ip, 10 min, read-out: ED50 (95% CL)
Method: (§1) The test compounds were administered in varying intraperitoneal doses to groups consisting of 5 mice. Ten minutes after administration of a given dose of a compound, a mouse was transferred to a covered 300 ml glass beaker that contained a wad of cotton saturated with about 20 ml of chloroform. The animal was observed closely and removed from the beaker immediately after respiratory arrest. The heart was quickly exposed by making an incision through the abdomen, diaphragm, thorax and pericardium for visual inspection of ventricular rate and rhythm. Ventricular contractions were counted for 30 seconds. According to the procedure reported by Lawson, animals with ventricular rate not exceeding 100 contractions during the 30 second observation period were considered protected.

in vivo [3] = assay type: in vivo; details: mouse, in vivo, ip; LD50 and ED50 in mg/kg, i.p.; read-out: Therapeutic index
Method: as §1

[4] = cited from earlier work; for side effects / toxicity (in words): background
[5] = Casagrande, quoted; cited from earlier work

Row | SMILES | LD50 (in vivo [1]) | ED50 [2] | selectivity ratio (in vivo [3]) | further results
1 | O=C1NC(c2ccccc2)(c2ccccn2)C(=O)N1CCCN1CCC(O)(c2ccccc2)CC1 (stereo not shown) [Example 2, 3-[3-(4-hydroxy-4-phenyl-1-piperidyl)propyl]-5-phenyl-5-(2-pyridyl)hydantoin] | 65 mg/kg | 19.2 mg/kg | 3.4 | 
2 | O=C1NC(=O)C(c2ccccc2)(c2ccccn2)N1 (stereo not shown) [V, 5-phenyl-5-(2-pyridyl)hydantoin] | 186 mg/kg | 160 mg/kg | 1.16 | 
3 | O=C1NC(=O)C(c2ccccc2)(c2cccnc2)N1 (stereo not shown) [VI, 5-phenyl-5-(3-pyridyl)hydantoin] |  | > 310 mg/kg |  | mice protected ([2]; at 310 mg/kg, i.p.): 2 of 5
4 | O=C1NC(=O)C(c2ccccc2)(c2ccncc2)N1 (stereo not shown) [VII, 5-phenyl-5-(4-pyridyl)hydantoin] | 240 mg/kg | 205 mg/kg | 1.17 | 
5 | O=C1NC(c2ccccc2)(c2cccnc2)C(=O)N1CCCN1CCC(c2ccccc2)CC1 (stereo not shown) [Example 4, 3-[3-(4-phenyl-1-piperidyl)propyl]-5-phenyl-5-(3-pyridyl)-hydantoin] | 156 mg/kg | 31 mg/kg | 5 | 
6 | O=C1NC(c2ccccc2)(c2ccccn2)C(=O)N1CCCN1CCC(c2ccccc2)CC1 (stereo not shown) [Example 1, 3-[3-(4-phenyl-1-piperidyl)propyl]-5-phenyl-5-(2-pyridyl)hydantoin] | 136 mg/kg | 15.3 mg/kg | 9 | 
7 | O=C1NC(=O)C(c2ccccc2)(c2ccccc2)N1 [DPH, 5,5-diphenyl-2,4-imidazolidinedione] |  |  |  | side effects / toxicity (in words) [4]: dizziness, nausea, emesis, nystimus, and ataxia; side effects at large doses (in words) ([4]; large doses): atrio-ventricular blockage, bradycardia, or even cardiac arrest
8 | CC(CN(C)C)CN1C(=O)NC(c2ccccc2)(c2cccnc2)C1=O (stereo not drawn) [compound XXX, 3-(2-methyl-3-dimethylamino-propyl)-5-phenyl-5β-pyridyl-hydantoin] |  |  |  | therapeutic index clearly superior to that of quinidine (in words) [5]: had not been fulfilled
9 | C=C[C@H]1C[N@@]2CC[C@H]1C[C@@H]2[C@@H](O)c1ccnc2ccc(OC)cc12 [I, quinidine] |  |  |  | side effects / toxicity (in words) [4]: relatively toxic
10 | CN(C)CCN1C(=O)NC(c2ccccc2)(c2cccnc2)C1=O (stereo not drawn) [compound XXV, 3-(2-dimethylamino-ethyl)-5-phenyl-5β-pyridyl-hydantoin] |  |  |  | therapeutic index clearly superior to that of quinidine (in words) [5]: had not been fulfilled
11 | O=C1NC(c2ccccc2)(c2ccncc2)C(=O)N1CCCN1CCC(c2ccccc2)CC1 (stereo not shown) [Example 5, 3-[3-(4-phenyl-1-piperidyl)propyl]-5-phenyl-5-(4-pyridyl)hydantoin] | 61 mg/kg | 28 mg/kg | 2.1 | 

— patent publication US4061760A, “Method for using 3-substituted-5-phenyl-5-pyridyl hydantoins as antiarrhythmic agents” (priority 1976, dated 1977)
